{"source": "patent US9821035B2", "about": "“Preparation for preventing or treating type I diabetes” (REGIMMUNE CORPORATION, priority 2012, dated 2017)", "format_in_all_cases": "cell-based", "key": {"[1]": {"tested_on": "CD4(+) Foxp3(+) cells (Treg cells)", "assay": "Insulin-B-peptide-specific proliferation of Treg cells, CFSE/FACS on spleen cells from drug-administered NOD mice (Example 3)", "details": "FIG. 3B", "method": "(§1) 1-5. Analysis of Insulin-B-Peptide-Specific Cell Proliferation of Treg Cells and Measurement of Cytokine Production To NOD mice (NOD/ShiJcl, CLEA Japan Inc., Tokyo, Japan), which are animals representing a spontaneous model for type I diabetes, was intraperitoneally administered 100 μl of the sample for administration, twice a week between the age of 5 to 10 weeks, which was a period prior to the onset of type I diabetes. The spleen was removed from 13-week-old mice and then spleen cells were prepared and subjected to cell culture. Groups receiving test drugs were the following five groups: 1) a group receiving no drug (i.e., a group receiving physiological saline), 2) a group receiving the insulin-B-peptide-incorporated α-GalCer-liposome, 3) a group receiving the insulin-B-peptide-incorporated liposome, 4) a group receiving the α-GalCer-liposome, and 5) a group receiving the α-GalCer solution, with N=2 to 3 animals per group. After preparation of spleen cells from the animals of each of the groups, spleen cells were loaded with CFSE (carboxyfluorescein diacetate succinimidyl ester), a dye used in cell proliferation assays, and subjected to reaction, followed by washing the cells to remove the dye, in regular procedures. […] The concentrations of IL-2 and IL-10 in the culture supernatant were also measured."}, "IL-2": {"tested_on": "IL-2", "assay": "Cytokine production in culture supernatant of spleen cells from drug-administered NOD mice: IL-2", "details": "spleen cells of dosed NOD mice, cultured four days", "method": "as §1"}, "IL-10": {"tested_on": "IL-10", "assay": "Cytokine production in culture supernatant of spleen cells from drug-administered NOD mice: IL-10", "details": "spleen cells of dosed NOD mice, cultured four days", "method": "as §1"}}, "data": [{"smiles": "CCCCCCCCCCCCCCCCCCCCCCCCCC(=O)N[C@@H](CO[C@H]1O[C@H](CO)[C@H](O)[C@H](O)[C@H]1O)[C@H](O)[C@H](O)CCCCCCCCCCCCCC", "note": "[α-GalCer solution, (2S,3S,4R)-1-O-(α-D-galactopyranosyl)-2-hexacosanoylamino-1,3,4-octadecanetriol]", "values": [{"measurement": "ratio of the percentage of proliferated cells when no antigen was added to the percentage when the insulin B peptide was added", "setting": "[1]", "result": 1.04}, {"measurement": "Concentration of IL-2 in culture supernatant", "setting": "IL-2", "result": 0.9, "unit": "pg/mL"}, {"measurement": "Concentration of IL-10 in culture supernatant", "setting": "IL-10", "result": 1.3, "unit": "pg/mL"}]}]}
